Here are results for 2 compounds from ChEMBL document CHEMBL1201862, “PubChem BioAssay data set” (2004).

A word on the IC50: it is the midpoint of a concentration-inhibition curve. Broadly, the EC50 is the concentration needed to bring the measured effect to its halfway point. One may read the AC50 as the midpoint of the concentration-response curve, whichever way the signal moves.

For one test, the target named is T1, Aminopeptidase N (Plasmodium falciparum FcB1/Columbia, UniProt O96935).
T1 sequence (O96935 whole entry): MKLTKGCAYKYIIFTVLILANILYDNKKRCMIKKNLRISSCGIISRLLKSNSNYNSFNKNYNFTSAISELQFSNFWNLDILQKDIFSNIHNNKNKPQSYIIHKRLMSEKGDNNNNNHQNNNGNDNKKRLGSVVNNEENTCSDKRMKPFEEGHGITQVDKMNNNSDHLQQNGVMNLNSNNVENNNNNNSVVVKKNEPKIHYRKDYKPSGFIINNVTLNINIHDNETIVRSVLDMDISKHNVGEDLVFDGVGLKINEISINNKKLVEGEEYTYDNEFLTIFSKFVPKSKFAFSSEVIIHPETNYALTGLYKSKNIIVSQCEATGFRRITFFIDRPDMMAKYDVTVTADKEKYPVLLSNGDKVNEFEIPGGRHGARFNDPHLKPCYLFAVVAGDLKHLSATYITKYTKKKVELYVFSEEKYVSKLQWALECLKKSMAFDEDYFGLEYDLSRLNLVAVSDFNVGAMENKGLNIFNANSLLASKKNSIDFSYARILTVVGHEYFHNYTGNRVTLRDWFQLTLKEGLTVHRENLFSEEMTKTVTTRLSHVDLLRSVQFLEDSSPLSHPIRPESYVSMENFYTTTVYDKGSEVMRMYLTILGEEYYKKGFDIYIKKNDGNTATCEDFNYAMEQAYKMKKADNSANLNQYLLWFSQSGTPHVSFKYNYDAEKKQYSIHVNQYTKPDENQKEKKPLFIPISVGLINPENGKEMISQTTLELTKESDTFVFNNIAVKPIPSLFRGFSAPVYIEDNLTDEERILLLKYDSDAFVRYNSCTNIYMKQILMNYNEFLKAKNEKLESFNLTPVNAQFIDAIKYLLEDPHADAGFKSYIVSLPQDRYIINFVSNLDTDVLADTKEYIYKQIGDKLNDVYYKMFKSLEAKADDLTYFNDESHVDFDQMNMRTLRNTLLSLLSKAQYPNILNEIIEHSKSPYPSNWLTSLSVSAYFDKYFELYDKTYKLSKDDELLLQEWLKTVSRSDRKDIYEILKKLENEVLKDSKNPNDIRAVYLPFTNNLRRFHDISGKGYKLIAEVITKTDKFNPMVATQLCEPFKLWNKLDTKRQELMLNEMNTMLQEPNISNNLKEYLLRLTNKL
The test can be described thus: P. falciparum M1AAP inhibitors, biochemical, fluorogenic H-Leu-NHMec substrate, 1536-well (AID 1445). The arrangement: species or system Plasmodium falciparum 3D7, 3D7.

The target in test [1] is T2, Voltage-gated inwardly rectifying potassium channel KCNH2 (Homo sapiens, UniProt Q12809). The test can be described thus: concentration dependence of hERG rescue from dofetilide, dose response, manual patch clamp, HEK293 cells (AID 2638). Type of test: ADME. (In general: hERG is a cardiac potassium channel; its block is linked to QT prolongation.)
Test [2] deals with T2, Voltage-gated inwardly rectifying potassium channel KCNH2. The test can be described thus: hERG protection from proarrhythmic block, potency, dose response, cell-based, thallium flux (AID 2121). Format: ADME.
A short description of test [3]: Luminescent dose response cell-based high throughput screening assay for inhibitors of the Janus kinase 2 mutant JAK2V617F. [Related pubchem assays: 1446 (Primary screen.), 1521 (Confirmation assay.), 1486 (Counter screen.)]. Format: functional.
A short description of test [4]: NIH-3T3 fibroblast cytotoxicity, dose response, cytotoxicity control, cell-based, fluorescence, Alamar Blue, secondary assay (AID 2327).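 Also: NIH-3T3 mouse fibroblasts cultured with fluconazole at 8 µg/mL.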 Format: functional. (In general: The colour change of resazurin is a common sign of viable cells or microbes.)
Test [5] is described as follows: C. albicans growth with fluconazole, confirmation, fluorescence, retest (AID 2467). Type of test: functional, cell-based.
For test [6], the target named is G-protein coupled receptor 55 (Homo sapiens, UniProt Q9Y2T6). The test can be described thus: GPR55 antagonists blocking LPI-driven arrestin recruitment, primary screen, imaging, U2OS, beta-arrestin-GFP, LPI agonist (AID 2013).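 Also: antagonist potency measured as reduced agonist-driven arrestin aggregation.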 Type of test: functional. A general note: Recruitment of arrestin is a read-out of receptor activation apart from second messengers.
The nature of test [7]: inhibitors of intracellular T. cruzi replication, confirmation, NIH3T3 host cells, beta-gal luminescence (AID 2044).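 Also: intracellular parasites grown in NIH/3T3 mouse fibroblasts as host cells; luminescent beta-galactosidase reporter signal from transgenic T. cruzi replicating inside host cells; inhibitors lower the luminescence signal.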 Type of test: functional, cell-based.
Test [8] can be described thus: cytotoxicity toward NIH3T3 fibroblasts, dose response, counter-screen, cell-based, ATP luminescence, mouse fibroblasts (AID 2010).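 Also: cells exposed to compound for about 90 hours before reading.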 Format: functional.
Test [9] addresses Bifunctional protein GlmU (Mycobacterium tuberculosis, UniProt P9WMN3). The test can be described thus: Inhibitors of Mycobacterial Glucosamine-1-phosphate acetyl transferase (GlmU). Secondary screen. The arrangement: species or system Mycobacterium tuberculosis H37Rv.
The subject of the next test is CHO. The test can be described thus: cytotoxicity in TLR9-MyD88 CHO cells, dose response, cytotoxicity control for TLR9-MyD88 binding inhibitor project, cell-based, luminescence (AID 588339).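 Also: CHO cells stably coexpressing TLR9 and MyD88 fusions from primary screen; compound exposure lasted 48 hours before viability readout.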 Type of test: functional, hamster. The following applies: Cricetulus griseus.
Test [10] deals with T3, Replicative DNA helicase DnaB (Mycobacterium tuberculosis, UniProt P9WMR3).
T3 sequence (P9WMR3 whole entry): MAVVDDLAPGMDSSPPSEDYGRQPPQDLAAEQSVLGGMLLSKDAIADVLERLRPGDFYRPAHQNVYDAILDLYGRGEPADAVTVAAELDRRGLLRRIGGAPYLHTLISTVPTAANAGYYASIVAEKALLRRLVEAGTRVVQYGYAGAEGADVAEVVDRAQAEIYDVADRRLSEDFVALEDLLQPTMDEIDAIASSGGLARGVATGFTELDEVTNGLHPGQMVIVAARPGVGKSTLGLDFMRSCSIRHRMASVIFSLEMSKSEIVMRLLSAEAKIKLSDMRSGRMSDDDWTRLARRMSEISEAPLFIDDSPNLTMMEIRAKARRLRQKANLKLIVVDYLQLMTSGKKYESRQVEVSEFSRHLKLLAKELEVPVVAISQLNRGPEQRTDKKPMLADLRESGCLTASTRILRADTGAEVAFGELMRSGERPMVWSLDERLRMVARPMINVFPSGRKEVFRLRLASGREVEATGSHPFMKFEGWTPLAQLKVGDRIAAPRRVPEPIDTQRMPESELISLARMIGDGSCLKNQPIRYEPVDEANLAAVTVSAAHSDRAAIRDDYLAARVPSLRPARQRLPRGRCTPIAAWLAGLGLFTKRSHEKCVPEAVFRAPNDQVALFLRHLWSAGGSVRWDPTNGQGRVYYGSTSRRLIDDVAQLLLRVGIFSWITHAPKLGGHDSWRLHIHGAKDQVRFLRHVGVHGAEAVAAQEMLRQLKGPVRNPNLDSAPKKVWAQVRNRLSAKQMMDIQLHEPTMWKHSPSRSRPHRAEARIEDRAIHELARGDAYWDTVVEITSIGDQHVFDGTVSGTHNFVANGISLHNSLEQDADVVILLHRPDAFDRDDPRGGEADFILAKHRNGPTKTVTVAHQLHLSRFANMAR
Kind of test: DnaB intein splicing inhibitors, dose response, biochemical, cell-free fluorescence (AID 449749). Type of test: functional.

For a further test, the target named is T4, Protein RecA (Mycobacterium tuberculosis, UniProt P9WHJ3).
T4 sequence (P9WHJ3 whole entry): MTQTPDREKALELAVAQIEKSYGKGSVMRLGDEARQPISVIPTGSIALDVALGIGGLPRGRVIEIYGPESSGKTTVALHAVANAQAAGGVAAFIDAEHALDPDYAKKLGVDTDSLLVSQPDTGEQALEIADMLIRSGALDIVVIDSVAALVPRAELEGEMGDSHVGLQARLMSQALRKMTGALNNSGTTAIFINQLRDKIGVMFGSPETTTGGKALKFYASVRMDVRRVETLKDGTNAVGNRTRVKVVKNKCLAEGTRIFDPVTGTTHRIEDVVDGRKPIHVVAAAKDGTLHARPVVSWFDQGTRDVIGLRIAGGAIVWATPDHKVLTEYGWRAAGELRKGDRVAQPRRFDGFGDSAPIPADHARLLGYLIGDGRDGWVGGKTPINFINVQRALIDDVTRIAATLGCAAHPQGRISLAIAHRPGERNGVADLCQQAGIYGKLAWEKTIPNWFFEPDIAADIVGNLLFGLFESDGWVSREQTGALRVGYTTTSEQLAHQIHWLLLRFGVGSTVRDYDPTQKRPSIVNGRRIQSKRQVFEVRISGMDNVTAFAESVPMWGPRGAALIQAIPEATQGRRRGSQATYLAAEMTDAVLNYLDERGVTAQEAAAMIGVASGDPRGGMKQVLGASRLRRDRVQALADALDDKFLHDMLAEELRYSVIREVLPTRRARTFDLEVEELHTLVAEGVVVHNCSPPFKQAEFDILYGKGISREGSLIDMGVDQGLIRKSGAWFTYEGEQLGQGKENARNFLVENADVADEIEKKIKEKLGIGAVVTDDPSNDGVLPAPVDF
Kind of test: Fluorescence Cell-Free Homogeneous Dose Retest to Identify Inhibitors of RecA-Intein Splicing Activity. [Related pubchem assays (depositor defined):AID2097, AID2223, AID489010, AID492950]. Type of test: functional.

Another test deals with Beta Lactamase (Pseudomonas aeruginosa, UniProt Q932Y6). Kind of test: beta-lactamase reporter inhibitor potency, dose response, artefact control for TLR9-MyD88 binding inhibitor project, BLA reporter cells, FRET fluorescence (AID 588341).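 Also: cell based assay in CHO-K1 cells stably expressing beta-lactamase.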 Format: cell-based.
Test [11] is described as follows: Shn3 3'UTR reporter inhibitors, dose response, cell-based, Clone20 osteoblasts, firefly luciferase, cherry-picked (AID 624132).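 Also: firefly luciferase luminescence from reporter carrying the Shn3 3'UTR in osteoblasts.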 Type of test: functional.
Test [12] in a line: control 3'UTR Renilla luciferase suppression, dose response, counter-screen for Shn3 inhibitor project, cell-based, Clone20-Shn3RL, cherry-picked (AID 624133). Format: functional.
A short description of test [13]: A549 cell cytotoxicity, dose response, cytotoxicity control, plate reader, cherry-pick, antagonist series (AID 743412). Format: functional, cell-based.
Test [14] is described as follows: HepG2 cell cytotoxicity, dose response, cytotoxicity control, plate reader, cherry-pick, antagonist series (AID 743416). Type of test: functional, cell-based.
The nature of test [15]: LGR2 antagonists, dose response, cell-based, HEK293, CRE-luciferase reporter, cherry pick, set 2 (AID 743343).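 Also: transfected cells were stimulated with diluted bursicon conditioned medium after compound addition.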 Format: functional.
Test [16] can be described thus: MC4R antagonists, dose response, counter-screen for LGR2 antagonist project, cell-based, plate reader, cherry pick (AID 743444).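 Also: transfected HEK 293 cells stimulated with alpha-MSH peptide; potency of inhibitors of the alpha-MSH evoked signal.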 Type of test: functional.
Test [17] in a line: HEK293 cell cytotoxicity, dose response, cytotoxicity control, plate reader, cherry-picked samples (AID 743446). Type of test: functional, cell-based.

Calls of active or inactive are those of the source.

T2 sequence (Q12809 whole entry): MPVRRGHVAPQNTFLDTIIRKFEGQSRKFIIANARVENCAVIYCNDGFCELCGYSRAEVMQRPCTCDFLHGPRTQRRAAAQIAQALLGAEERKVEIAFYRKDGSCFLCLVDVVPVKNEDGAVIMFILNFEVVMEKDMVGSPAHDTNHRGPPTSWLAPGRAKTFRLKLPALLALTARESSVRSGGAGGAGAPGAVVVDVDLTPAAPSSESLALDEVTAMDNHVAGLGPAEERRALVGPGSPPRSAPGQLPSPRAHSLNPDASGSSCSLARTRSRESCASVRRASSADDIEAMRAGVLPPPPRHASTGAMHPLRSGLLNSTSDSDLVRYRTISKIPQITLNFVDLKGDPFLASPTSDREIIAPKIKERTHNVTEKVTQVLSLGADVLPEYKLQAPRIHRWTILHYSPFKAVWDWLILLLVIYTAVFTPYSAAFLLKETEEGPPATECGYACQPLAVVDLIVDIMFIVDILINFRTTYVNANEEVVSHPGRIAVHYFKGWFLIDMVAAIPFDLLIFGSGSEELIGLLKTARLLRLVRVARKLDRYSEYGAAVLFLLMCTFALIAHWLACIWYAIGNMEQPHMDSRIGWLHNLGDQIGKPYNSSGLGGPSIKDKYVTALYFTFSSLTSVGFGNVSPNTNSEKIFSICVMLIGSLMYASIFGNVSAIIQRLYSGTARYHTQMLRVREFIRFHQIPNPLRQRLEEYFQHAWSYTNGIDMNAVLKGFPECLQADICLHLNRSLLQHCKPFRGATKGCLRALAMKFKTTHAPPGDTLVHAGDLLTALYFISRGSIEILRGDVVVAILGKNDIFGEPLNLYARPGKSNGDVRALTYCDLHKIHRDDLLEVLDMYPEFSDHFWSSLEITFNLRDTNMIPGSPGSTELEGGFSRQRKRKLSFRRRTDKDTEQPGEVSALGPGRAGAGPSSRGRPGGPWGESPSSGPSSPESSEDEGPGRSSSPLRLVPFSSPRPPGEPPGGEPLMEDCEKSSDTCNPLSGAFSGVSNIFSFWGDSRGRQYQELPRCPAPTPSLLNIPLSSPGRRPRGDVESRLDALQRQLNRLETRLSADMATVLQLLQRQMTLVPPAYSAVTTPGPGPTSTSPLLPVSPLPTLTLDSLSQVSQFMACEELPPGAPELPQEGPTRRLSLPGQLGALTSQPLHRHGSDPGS
Sequence of Bifunctional protein GlmU (P9WMN3 whole entry, the tested form may be a part): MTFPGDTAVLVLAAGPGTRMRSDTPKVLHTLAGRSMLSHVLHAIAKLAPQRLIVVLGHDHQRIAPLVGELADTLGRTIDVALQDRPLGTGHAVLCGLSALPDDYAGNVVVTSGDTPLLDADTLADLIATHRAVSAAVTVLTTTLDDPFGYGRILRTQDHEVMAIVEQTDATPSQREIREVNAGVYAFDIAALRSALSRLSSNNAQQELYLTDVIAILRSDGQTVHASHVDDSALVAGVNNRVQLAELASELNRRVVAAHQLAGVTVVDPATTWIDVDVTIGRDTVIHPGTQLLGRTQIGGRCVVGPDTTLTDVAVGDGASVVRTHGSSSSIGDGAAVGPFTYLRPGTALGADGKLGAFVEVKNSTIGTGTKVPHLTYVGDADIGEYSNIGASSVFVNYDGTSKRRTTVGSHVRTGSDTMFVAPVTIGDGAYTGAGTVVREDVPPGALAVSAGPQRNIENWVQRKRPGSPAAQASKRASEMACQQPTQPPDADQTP
Sequence of G-protein coupled receptor 55 (Q9Y2T6 whole entry): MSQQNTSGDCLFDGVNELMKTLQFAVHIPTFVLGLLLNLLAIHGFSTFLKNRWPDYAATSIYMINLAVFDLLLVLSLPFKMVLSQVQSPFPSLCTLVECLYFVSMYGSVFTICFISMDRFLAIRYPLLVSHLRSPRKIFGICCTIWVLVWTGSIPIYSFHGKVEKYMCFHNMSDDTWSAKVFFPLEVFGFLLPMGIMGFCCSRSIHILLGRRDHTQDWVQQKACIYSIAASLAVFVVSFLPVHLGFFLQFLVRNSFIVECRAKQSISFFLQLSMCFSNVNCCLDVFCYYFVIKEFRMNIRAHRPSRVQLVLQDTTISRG
Sequence of Beta Lactamase (Q932Y6 whole entry): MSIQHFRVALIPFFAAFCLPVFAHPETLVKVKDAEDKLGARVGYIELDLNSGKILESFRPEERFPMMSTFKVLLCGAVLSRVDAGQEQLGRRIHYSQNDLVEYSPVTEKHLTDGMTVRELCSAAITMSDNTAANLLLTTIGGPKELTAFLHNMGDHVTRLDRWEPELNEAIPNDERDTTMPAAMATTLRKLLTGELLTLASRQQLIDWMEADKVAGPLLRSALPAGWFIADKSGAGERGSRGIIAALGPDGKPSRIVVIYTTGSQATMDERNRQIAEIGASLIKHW

Take `CCC1CCCCN1C(=S)NC(=O)c1cccs1` (stereo unspecified): the IC50 at Aminopeptidase N is 30 µM (active). Moreover, the figures for the EC50 in test [1] and in [2] were 5.2 µM (active) and 0.29 µM (active), respectively.
With `CNC(=O)c1nnsc1[S+]([O-])c1ccc(Cl)cc1` (stereo unspecified), the IC50 in test [3] was 0.707 µM (active); in test [6] it was 2.73 µM (active); in [9], 108 µM (active); in the test on CHO, 2.23 µM (active); at Beta Lactamase, 19.6 µM (inactive). Further, the EC50 in test [4] is 5.05 µM (inconclusive); in [5] it was 2.07 µM (active); in [7], 0.977 µM (active); in test [8] it was 1.9 µM (active); at Protein RecA, 21 µM (active). Moreover, the AC50 in test [10] was 41.2 µM (active); in test [11], 2.02 µM (active); in test [12], 6.49 µM (active); in test [13], 11.5 µM (active); in test [14] it was 9.72 µM (active); in test [15] it was 2.58 µM (active). Also, the AC50 in [16] is 2.49 µM (active); in [17], 12 µM (active).
